Earlier results in patent publication US20070042953A1, “Antiepileptogenic complex of albumin with docosahexaenoate” (priority 2005, published 2007).

What was measured:
[1] = test system: patients with chronic epilepsy; details: nutritional supplementation, first 6 weeks
[2] = test system: rat brain cells or hippocampal slices

CCC=CCC=CCC=CCC=CCC=CC/C=C\CCC(=O)[O-].[Na+] [DHA, cis-4,7,10,13,16,19-Docosahexaenoic acid, sodium salt]
seizure frequency [1]: reduce seizure frequency in the first 6 weeks, but the effect was not sustained
epileptic activity in vitro [2]: attenuate epileptic activity
